# Source: publication PMC12406255, “Engineering Peptide Modulators for T‑Cell Migration by Structural Scaffold Matching” (Journal of Medicinal Chemistry, 2025)
# Positions of bridges follow the written chain, without caps; N, C: chain ends. Non-standard residues stand in square brackets, D forms with d. Residues, ends and D or L forms follow the SMILES beside them. Nle = CCCC[C@H](N)C(=O)O
# Tests used:
# [1] = tested on: CD3+ cells of MS patients; experiment: Transwell migration assay with PBMC of MS patients, CD3+ cells; format: cell-based, human; details: PBMC of treatment-naive MS patients; p = 0.0008; repeated measures one-way ANOVA, Dunnett
# Experimental: 5 Activity of the novel VhTI-pep 2 and pepitem on patient lymphocytes. PPBMCs were isolated from the blood of MS patients with a very recent disease flare receiving no immunosuppressive or immunomodulatory treatment in the past. The effect of the linear pepitem and VhTI-pep 2 was tested for the T-cell populations (A) CD3^+, (B) Th1, (C) CD4^+, (D) memory CD4^+, (E) CD8^+, and (F) memory CD8^+ cells. Data are shown as mean ± SD for 4 independent measurements. Statistical analysis was performed on the level of total counted cells using repeated measures one-way ANOVA with Dunnett’s post hoc test. Statistical significance is indicated as n.s. (not significant), * p < 0.05; ** p < 0.01; *** p < 0.001.
# Human microvascular endothelial cells (HMEC-1 cells, Cytion, Eppelheim, Germany) were cultured in MCDB-131 medium (with 2.2 g/L sodium bicarbonate, without L-glutamine, PAN-Biotech Aidenbach, Germany) supplemented with 10% fetal bovine serum (FBS, Capricorn Scientific, Ebsdorfergrund, Germany), 100 units/ml penicillin-streptomycin (Sigma-Aldrich) 10 ng/mL epidermal growth factor (BioLegend, San Diego, US), 1 μg/mL hydrocortisone (Sigma-Aldrich), and 10 mM L-glutamine (Sigma-Aldrich). For experiments, the cells were used between passage numbers 4–9. […]
# [2] = Serum stability assay; format: in vitro ADME; details: human serum of healthy donors, lipids removed by centrifugation, 37 °C, peptide 30-60 μM from 10-fold stock in PBS, followed over 48 h, urea/TFA quench, analytical RP-HPLC peak area vs time 0, one-phase decay fit; mean ± SD, n = 2 (pepitem n = 5); read-out: Serum t 1/2 (converted)
# Experimental: Stability of peptides in human serum was measured similarly to that previously described. In short, fresh blood from healthy donors was collected in serum collection tubes (Clot Activator Tube, Becton Dickinson, Plymouth, United Kingdom, […]) and incubated at 4 °C for 2 h to allow blood clotting. The serum was separated by centrifugation at 1000 × g for 10 min. To remove lipids from the serum, an additional centrifugation step was performed at 15,000 × g for 15 min at 4 °C, after which the serum was used for the stability assays. For this, the serum was prewarmed for 10 min at 37 °C before the addition of the test compounds. Peptides were prepared at a 10-fold concentration in PBS and diluted to a final concentration between 60 and 30 μM with the serum. The serum-peptide reaction mix was incubated at 37 °C, and 40 μL aliquots were taken at the indicated time points. To stop the reaction, samples were mixed with 40 μL of 6 M urea for 10 min on ice, followed by precipitation of serum proteins by the addition of 40 μL of 20% TFA and incubation for at least 10 min on ice. The precipitate was pelleted at 15,000 × g for 15 min, and 90 μL of the supernatant was freeze-dried. The dry material was resuspended in HPLC solvent A (0.1% TFA in ddH2O). Peptide quantification was performed using analytical HPLC. The remaining peptide relative to the starting point (time point 0) was calculated by peak integration to determine the area under the peak at the designated time points and further calculated in comparison to time point 0 min, which was set as 100%. To calculate the half-life of the peptides in human serum, data points were fitted with a one-phase decay equation.
smiles,measurement,setting,value
"CCCC[C@@H]1NC(=O)[C@H](C(C)C)NC(=O)[C@H](CCCCN)NC(=O)[C@@H](NC(=O)[C@H](CCC(N)=O)NC(=O)[C@H](CCC(=O)O)NC(C)=O)CSSC[C@@H](C(=O)N[C@@H](CCC(=O)O)C(=O)N[C@@H](CCCCN)C(N)=O)NC(=O)[C@H](CC(N)=O)NC(=O)[C@H](CC(=O)O)NC(=O)[C@H](CC(C)C)NC(=O)[C@@H]2CSSC[C@H](NC1=O)C(=O)N[C@@H](Cc1ccc(O)cc1)C(=O)N[C@@H](C)C(=O)N[C@@H](CCC(N)=O)C(=O)NCC(=O)N[C@@H](C)C(=O)N[C@@H](CCC(=O)O)C(=O)N[C@@H](CC(C)C)C(=O)N1CCC[C@H]1C(=O)N[C@@H](CCC(=O)O)C(=O)N[C@@H](CC(C)C)C(=O)N[C@@H](CC(C)C)C(=O)N[C@@H](CCCNC(=N)N)C(=O)N[C@@H](CCCNC(=N)N)C(=O)N2 [VhTI-pep 2] (Ac-EQCKV[Nle]CYAQGAELPELLRRCLDNCEK-NH2; disulfide 3-25, 7-21)",migration of CD3+ cells of MS patients (in words),[1],significantly reduced
same,half-life,[2],> 48 h
